According to patent publication US8785468B2, “Phenylalanine amide derivatives useful for treating insulin-related diseases and conditions” (Amgen Inc., priority 2009, dated 2014):
Where a name gives a salt, the structure may show the parent alone.

Molecular target: T1, human receptor found in pancreatic islet cells (Homo sapiens, UniProt Q7Z601)
T1 sequence (Q7Z601 1-462): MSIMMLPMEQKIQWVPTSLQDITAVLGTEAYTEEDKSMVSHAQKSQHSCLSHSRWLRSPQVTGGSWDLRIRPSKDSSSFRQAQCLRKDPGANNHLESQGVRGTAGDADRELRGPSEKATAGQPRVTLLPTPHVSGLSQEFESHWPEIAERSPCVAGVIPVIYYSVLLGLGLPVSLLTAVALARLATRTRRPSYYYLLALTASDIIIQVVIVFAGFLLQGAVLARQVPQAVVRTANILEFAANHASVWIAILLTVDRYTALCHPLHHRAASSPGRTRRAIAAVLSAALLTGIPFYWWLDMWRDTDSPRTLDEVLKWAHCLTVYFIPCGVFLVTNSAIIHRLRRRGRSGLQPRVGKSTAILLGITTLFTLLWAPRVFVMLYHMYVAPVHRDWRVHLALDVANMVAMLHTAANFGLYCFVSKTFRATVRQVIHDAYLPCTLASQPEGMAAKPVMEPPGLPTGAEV
Assay: Activation of intracellular IP3 signaling in transfected cells (Activation Assay)
Assay type: cell-based
Settings: calculated from IP3 concentration measurements in cells transfected with the human receptor
Description: Table 12 provides exemplary compounds that were prepared and assessed, following protocols known to those of skilled in the art, for activation of intracellular inositol trisphosphate (IP3) signaling pathways that lead to elevation of intracellular calcium concentration. EC50 values provided in Table 12 were calculated from IP3 concentration measurements in cells transfected with a human receptor found in pancreatic islet cells, inter alia.

Structure (SMILES)	EC50
COc1ncc(-c2cc[nH]n2)cc1NC(=O)[C@H](Cc1ccccc1)NCc1cscn1 [Example 14.3, (2S)—N-(2-methoxy-5-(1H-pyrazol-3-yl)pyridin-3-yl)-3-phenyl-2-(thiazol-4-ylmethylamino)propanamide]	50 to 100 nM
Cc1cc(-c2cc(Cl)cc(NC(=O)[C@H](Cc3ccccc3)NCc3ccccn3)c2)ccn1 [Example 46, (2S)—N-(3-chloro-5-(2-methylpyridin-4-yl)phenyl)-3-phenyl-2-(pyridin-2-ylmethylamino)propanamide]	50 to 100 nM
CC(N[C@@H](Cc1ccccc1)C(=O)Nc1cccc(-c2ccncc2)c1)c1cscn1 (stereo partly drawn) [Example 34.19, (2S)-3-Phenyl-N-(3-(pyridin-4-yl)phenyl)-2-(1-(thiazol-4-yl)ethylamino)propanamide]	100 to 1000 nM
CNc1cc(-c2cc(NC(=O)[C@H](Cc3ccc(F)cc3)NCc3cc[nH]n3)n(C)n2)ccn1 [Example 23.2, (2S)-2-((1H-Pyrazol-3-yl)methylamino)-3-(4-fluorophenyl)-N-(1-methyl-3-(2-(methylamino)pyridin-4-yl)-1H-pyrazol-5-yl)propanamide]	< 50 nM
COc1ncc(-c2ccncc2)cc1NC(=O)[C@H](Cc1ccccc1)NCc1ccon1 [Example 35.4, (S)-2-(Isoxazol-3-ylmethylamino)-N-(2-methoxy-5-(pyridin-4-yl)pyridin-3-yl)-3-phenylpropanamide]	100 to 1000 nM
COc1ncc(-c2ccncc2)cc1NC(=O)[C@H](Cc1ccccc1)N[C@@H](C)c1ccccn1 [Example 35.2, (S)—N-(2-Methoxy-5-(pyridin-4-yl)pyridin-3-yl)-3-phenyl-2-((S)-1-(pyridin-2-yl)ethylamino)propanamide]	100 to 1000 nM
CNc1nccc(-c2cc(NC(=O)[C@H](Cc3ccc(F)cc3)NCc3cscn3)n(C)n2)n1 [Example 9, (2S)-3-(4-fluorophenyl)-N-(1-methyl-3-(2-(methylamino)pyrimidin-4-yl)-1H-pyrazol-5-yl)-2-(thiazol-4-ylmethylamino)propanamide]	100 to 1000 nM
O=C(Nc1cccc(-c2ccncc2F)c1)[C@H](Cc1ccccc1)NCc1cscn1 [Example 34.21, (2S)—N-(3-(3-Fluoropyridin-4-yl)phenyl)-3-phenyl-2-(thiazol-4-ylmethylamino)propanamide TFA salt]	1000 to 10000 nM
O=C(Nc1cccc(-c2cc[nH]n2)c1)[C@H](Cc1ccccc1)NCc1cscn1 [Example 12, (2S)—N-(3-(1H-pyrazol-3-yl)phenyl)-3-phenyl-2-(thiazol-4-ylmethylamino)propanamide]	50 to 100 nM
Cc1cc(-c2cc(NC(=O)[C@H](Cc3ccccc3)NCc3cscn3)cc(NS(C)(=O)=O)c2)ccn1 [Example 51.1, (2S)—N-(3-(2-Methylpyridin-4-yl)-5-(methylsulfonamido)phenyl)-3-phenyl-2-(thiazol-4-ylmethylamino)propanamide]	50 to 100 nM
O=C(Nc1cc(-c2ccncc2)no1)[C@H](Cc1ccc(Cl)cc1)NCc1cscn1 [Example 3.1, (S)-3-(4-Chlorophenyl)-N-(3-(pyridin-4-yl)isoxazol-5-yl)-2-(thiazol-4-ylmethylamino)propanamide]	100 to 1000 nM
COC(=O)C1CN(Cc2cc(NC(=O)[C@H](Cc3ccccc3)NCc3ccccn3)cc(-c3ccnc(C)c3)c2)C1 [Example 80, Methyl 1-((16S)-3-(2-methylpyridin-4-yl)-5-((S)-3-phenyl-2-(pyridin-2-ylmethylamino)propanamido)benzyl)azetidine-3-carboxylate]	100 to 1000 nM
COc1ncc(-c2ccncc2)cc1NC(=O)[C@H](Cc1ccccc1)NC1(c2csc(C)n2)CC1 [Example 35.3, (S)—N-(2-Methoxy-5-(pyridin-4-yl)pyridin-3-yl)-2-(1-(2-methylthiazol-4-yl)cyclopropylamino)-3-phenylpropanamide]	50 to 100 nM
O=C(Nc1cccc(-c2ccncc2)c1)[C@H](Cc1cccc(F)c1)NCC1CC1 [Example 34.12, (S)-2-(Cyclopropylmethylamino)-3-(3-fluorophenyl)-N-(3-(pyridin-4-yl)phenyl)propanamide]	100 to 1000 nM
O=C(Nc1nnc(-c2ccncc2)[nH]1)[C@H](Cc1ccccc1)NCc1cscn1 [Example 2, (S)-3-Phenyl-N-(5-(pyridin-4-yl)-4H-1,2,4-triazol-3-yl)-2-(thiazol-4-ylmethylamino)propanamide]	1000 to 10000 nM
Cn1nc(-c2ccncc2)cc1NC(=O)[C@H](Cc1ccccc1)NCc1ccc(F)cn1 [Example 17.4, (S)-2-((5-Fluoropyridin-2-yl)methylamino)-N-(1-methyl-3-(pyridin-4-yl)-1H-pyrazol-5-yl)-3-phenylpropanamide]	< 50 nM

Structure (SMILES)	EC50
NC(=O)c1cc(-c2ccncc2)cc2c1CCN2C(=O)[C@H](Cc1ccccc1)NCc1cscn1 [Example 60, (S)-1-(3-Phenyl-2-(thiazol-4-ylmethylamino)propanoyl)-6-(pyridin-4-yl)indoline-4-carboxamide]	100 to 1000 nM
COc1ncc(-c2ccnc(C)c2)cc1NC(=O)[C@H](Cc1ccccc1)NCc1cscn1 [Example 41.5, (2S)—N-(2-Methoxy-5-(2-methylpyridin-4-yl)pyridin-3-yl)-3-phenyl-2-(thiazol-4-ylmethylamino)propanamide TFA salt]	100 to 1000 nM
Cn1ncnc1-c1cc(-c2ccncc2)cc2c1CCN2C(=O)[C@H](Cc1ccccc1)NCc1cscn1 [Example 61, (2S)-1-(4-(2-Methyl-2H-1,2,4-triazol-3-yl)-6-(pyridin-4-yl)indolin-1-yl)-3-phenyl-2-(thiazol-4-ylmethylamino)propan-1-one]	1000 to 10000 nM
Cn1cc(-c2cccc(NC(=O)[C@H](Cc3ccccc3)NCc3cscn3)c2)cn1 [Example 27, (2S)—N-(3-(1-Methyl-1H-pyrazol-4-yl)phenyl)-3-phenyl-2-(thiazol-4-ylmethylamino)propanamide]	100 to 1000 nM
Cc1cc(-c2cc(NC(=O)[C@H](Cc3ccccc3)NCc3ccccn3)cc(OCCN(C)C)c2)ccn1 [Example 76, (2S)—N-(3-(2-(Dimethylamino)ethoxy)-5-(2-methylpyridin-4-yl)phenyl)-3-phenyl-2-(pyridin-2-ylmethylamino)propanamide]	100 to 1000 nM
O=C(Nc1cc(-c2ccncc2)c[nH]c1=O)[C@H](Cc1cccc(Cl)c1)NCc1cscn1 [Example 25.1, (S)-3-(3-Chlorophenyl)-N-(2-oxo-5-(pyridin-4-yl)-1,2-dihydropyridin-3-yl)-2-(thiazol-4-ylmethylamino)propanamide trifluoroacetate]	100 to 1000 nM
Cc1cc(-c2ccc(OCCN(C)C)c(NC(=O)[C@H](Cc3ccccc3)NCc3cscn3)c2)ccn1 [Example 75, (2S)—N-(2-(2-(Dimethylamino)ethoxy)-5-(2-methylpyridin-4-yl)phenyl)-3-phenyl-2-(thiazol-4-ylmethylamino)propanamide trifluoroacetate]	100 to 1000 nM
N[C@@H](Cc1ccccc1)C(=O)N1CCc2ccc(-c3ccn[nH]3)cc21 [Example 83, (2S)-1-(6-(1H-pyrazol-5-yl)indolin-1-yl)-2-amino-3-phenylpropan-1-one Ditrifluoroacetate]	1000 to 10000 nM
COC(=O)c1cc(-c2ccncc2)cc2c1CCN2C(=O)[C@H](Cc1ccc(F)cc1)NCc1cscn1 [Example 54.5, (S)-Methyl 1-(3-(4-fluorophenyl)-2-(thiazol-4-ylmethylamino)propanoyl)-6-(pyridin-4-yl)indoline-4-carboxylate]	50 to 100 nM
COC(=O)c1cc(-c2ccncc2)cc2c1CCN2C(=O)[C@H](Cc1ccc(F)cc1)NCc1ccccn1 [Example 54.7, (S)-Methyl 1-(3-(4-fluorophenyl)-2-(pyridin-2-ylmethylamino)propanoyl)-6-(pyridin-4-yl)indoline-4-carboxylate]	50 to 100 nM
Cc1nnc(-c2cc(-c3ccncc3)cc3c2CCN3C(=O)[C@H](Cc2ccccc2)NCc2cscn2)[nH]1 [Example 69, (2S)-1-(4-(5-Methyl-4H-1,2,4-triazol-3-yl)-6-(pyridin-4-yl)indolin-1-yl)-3-phenyl-2-(thiazol-4-ylmethylamino)propan-1-one]	50 to 100 nM
Cc1cc(-c2ccc3c(c2)N(C(=O)[C@H](Cc2ccccc2)NCc2cscn2)CC3)ccn1 [Example 56, (2S)-1-(6-(2-Methylpyridin-4-yl)indolin-1-yl)-3-phenyl-2-(thiazol-4-ylmethylamino)propan-1-one]	50 to 100 nM
O=C(O)c1cc(NC(=O)[C@H](Cc2ccccc2)NCc2ccccn2)cc(-c2ccncc2)c1 [Example 45.6, (S)-3-(3-Phenyl-2-(pyridin-2-ylmethylamino)propanamido)-5-(pyridin-4-yl)benzoic acid]	50 to 100 nM
O=C([C@H](Cc1ccccc1)NCc1cscn1)N1CCc2c(-c3nnco3)cc(-c3ccncc3)cc21 [Example 68, (2S)-1-(4-(1,3,4-Oxadiazol-2-yl)-6-(pyridin-4-yl)indolin-1-yl)-3-phenyl-2-(thiazol-4-ylmethylamino)propan-1-one]	100 to 1000 nM
O=C(Nc1cnc(-c2ccncc2)s1)[C@H](Cc1ccc(F)cc1)NCc1cscn1 [Example 5.2, (S)-3-(4-Fluorophenyl)-N-(2-(pyridin-4-yl)thiazol-5-yl)-2-(thiazol-4-ylmethylamino)propanamide]	50 to 100 nM
